# Source: PMC7531004, “Discovery of gramicidin A analogues with altered activities by multidimensional screening of a one-bead-one-compound library” (Nature Communications, 2020)
# “And” between values parts separate entries of the source, which are not always exact repeats. Identical values can stand only once. Like-named read-outs stand apart in the source and are kept apart here. Where a SMILES comes first, the peptide text is derived from it. [ ]: non-standard residue; d: D form. The star is where a group is joined. NHCH2CH2OH = OCCN*; For = O=C*
# Assays:
# [1] = H+/Na+ transport assay of purified peptides; conditions: for Supplementary Figure 5 dose-response value (H+/Na+ transport): three replicate lines
# [2] = tested on: P388 mouse leukemia cell line; conditions: for IC50: 2 h
# rabbit red blood cells = conditions: red cells of rabbit, 2 h
# Experimental: Second, we examined the cytotoxicity toward mammalian cancer cells and hemolytic activity of 1. […] Hemolytic activity was evaluated by monitoring hemoglobin leakage from rabbit red blood cells as a consequence of membrane damage. The concentration of 1 required to cause 10% hemoglobin leakage (HC10) was 160 nM. Thus, the P388 cytotoxicity of 1 was 28-fold more sensitive than its hemolytic activity.
# Hemolysis assay of purified peptides. […]
# with DMSO to various concentrations as 3-fold serial dilution. A 50% suspension of rabbit blood in Alsever's solution was obtained from Nippon Bio -Supp. Center . The blood suspension (250 µL) w as diluted with phosphate buffered saline (no calcium, no magnesium, 1.00 mL). The resultant suspension was centrifuged at 1000 × g for 3 min at 8 °C. The supernatant was discarded, and the collected cells were resuspended in phosphate buffered saline (no calcium, no magnesium, 1.00 mL). The same procedure was repeated (× 3). The resultant suspension (100 µL) was diluted with phosphate buffered saline (no calcium, no magnesium, 4.90 mL) to give 0.2% red blood cells suspension. The 0.2% red blood cells suspension (95.0 µL) and each dilution series of the purified peptide in DMSO (5 .0 µL) were mixed in 2 mL microtube.
# supernatant was transferred to a 96-well plate (TR5003, TrueLine). The absorbance of each well at 415 nm was measured using a Thermo Scientific Multiskan GO (Thermo Fisher Scientific). The mixture of Triton X-100/H2O (5/95, 2.0 µL), DMSO (5.0 µL), and the 0.2% red blood cells suspension (95.0 µL) was used to determine 100% hemolysis. The mixture of DMSO (5.0 µL) and the 0.2% red blood cells suspension (95.0 µL) was used to determine 0% hemolysis. The hemolytic activities of tested peptides ( I) were normalized against 100% hemolysis by Triton X -100 (Imax) and 0% hemolysis by DMSO (I0) according to Supplementary Equation 3, where Ix is the UV absorbance.
# I = 100 × (Ix – I0) / (Imax – I0) (3)
# The hemolytic activities of the purified peptides were evaluated as the concentrations causing 10% hemolysis (HC10, nM) by means of three replicates. Sigmoidal curve fittings were performed on GraphPad Prism (GraphPad software, Supplementary Figure 7).
# [3] = tested on: Streptococcus pyogenes SSI-9; assay: Antibacterial activity assay of bead-derived peptides (three concentrations); assay type: cell-based; conditions: S. pyogenes
# In short: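 Undiluted, 4-fold and 16-fold DMSO-diluted peptide stocks; S. pyogenes SSI-9, 2 × 10^5 CFU, cation-adjusted MHB (50 mg/L Ca2+, 25 mg/L Mg2+) + 5% laked horse blood; 37 °C, 18 h; readout = cell pellet visible or not.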
# [4] = read-out: EC50, H+/Na+ transport assay, 1st experiment
# [5] = read-out: EC50, H+/Na+ transport assay, 2nd experiment
# [6] = read-out: EC50, H+/Na+ transport assay, 3rd experiment
# [7] = read-out: H+/Na+ transport activity EC50, EYPC/EYPG (19:1) LUVs
# [8] = read-out: H+/Na+ transport activity/EC50, mean ± SD of three independent experiments
"EC50 [1, 4] [nM]","EC50 [1, 5] [nM]","EC50 [1, 6] [nM]","EC50 [1, 7] [nM]","EC50 [1, 8] [nM]",IC50 [2] [nM],SMILES,Supplementary Figure 5 dose-response value (H+/Na+ transport) ([1]; concentration 0.000512 nM),Supplementary Figure 5 dose-response value (H+/Na+ transport) ([1]; concentration 0.00256 nM),Supplementary Figure 5 dose-response value (H+/Na+ transport) ([1]; concentration 0.0128 nM),Supplementary Figure 5 dose-response value (H+/Na+ transport) ([1]; concentration 0.064 nM),Supplementary Figure 5 dose-response value (H+/Na+ transport) ([1]; concentration 0.32 nM),Supplementary Figure 5 dose-response value (H+/Na+ transport) ([1]; concentration 1.6 nM),Supplementary Figure 5 dose-response value (H+/Na+ transport) ([1]; concentration 8 nM),Supplementary Figure 5 dose-response value (H+/Na+ transport) ([1]; concentration 40 nM),Supplementary Figure 5 dose-response value (H+/Na+ transport) ([1]; concentration 200 nM),Supplementary Figure 5 dose-response value (H+/Na+ transport) ([1]; concentration 1000 nM),Supplementary Figure 5 dose-response value (H+/Na+ transport) ([1]; concentration 5000 nM),Hemolytic activity HC10 (concentration causing 10% hemolysis) (rabbit red blood cells) [nM],weaker cytotoxicity than 1 [2] [fold],antibacterial activity in the library screening [3]
1.54,1.6,1.51,1.6,1.55 ± 0.04,> 1000,CC(C)C[C@@H](NC(=O)[C@H](C)NC(=O)CNC(=O)[C@@H](NC=O)C(C)C)C(=O)N[C@@H](C)C(=O)N[C@@H](C(=O)N[C@H](C(=O)N[C@@H](C(=O)N[C@@H](Cc1c[nH]c2ccccc12)C(=O)N[C@H](CC(C)C)C(=O)N[C@@H](Cc1c[nH]c2ccccc12)C(=O)N[C@H](CC(C)C)C(=O)N[C@@H](Cc1c[nH]c2ccccc12)C(=O)N[C@H](CC(C)C)C(=O)N[C@@H](Cc1c[nH]c2ccccc12)C(=O)NCCO)[C@H](C)O)C(C)C)C(C)C [B13] (For-VGA[dL]A[dV]V[dT]W[dL]W[dL]W[dL]W-NHCH2CH2OH),3.017 and 1.952 and 2.608,3.102 and 3.766 and 3.197,2.802 and 3.448 and 5.087,7.573 and 8.7038 and 6.571,17.1662 and 17.5754 and 16.2478,34.5009 and 38.0687 and 36.068,62.5081 and 62.2715 and 60.6584,69.7421 and 65.8817 and 68.9295,70.9489 and 69.9169 and 66.3002,70.4102 and 68.4527 and 68.0392,77.0905 and 71.4732 and 77.0208,> 3000,,
1.66,0.838,2.98,1.8,1.83 ± 1.08,,CC(C)C[C@@H](NC(=O)[C@H](C)NC(=O)CNC(=O)[C@@H](NC=O)C(C)C)C(=O)N[C@@H](C)C(=O)N[C@@H](C(=O)N[C@H](C(=O)N[C@@H](C(=O)N[C@@H](Cc1c[nH]c2ccccc12)C(=O)N[C@H](CC(C)C)C(=O)N[C@@H](Cc1c[nH]c2ccccc12)C(=O)N[C@H](CC(C)C)C(=O)N[C@@H](Cc1c[nH]c2ccccc12)C(=O)N[C@@H](C(=O)N[C@@H](Cc1c[nH]c2ccccc12)C(=O)NCCO)C(C)C)[C@H](C)O)C(C)C)C(C)C [B12] (For-VGA[dL]A[dV]V[dT]W[dL]W[dL]W[dV]W-NHCH2CH2OH),2.818 and 0.0271 and -0.589,3.476 and 5.315 and 5.077,4.761 and 4.753 and 4.729,8.321 and 5.0339 and 7.369,16.8579 and 20.7391 and 16.934,35.2545 and 35.7349 and 38.3822,63.7974 and 60.2094 and 62.8038,71.4784 and 67.4712 and 69.6703,72.1513 and 73.1412 and 71.1696,74.8337 and 73.0658 and 70.6415,78.5724 and 78.4083 and 76.7501,> 3000,70,
1.57,1.58,1.32,1.5,1.49 ± 0.15,> 1000,CC(C)C[C@@H](NC(=O)[C@H](C)NC(=O)[C@H](NC(=O)[C@H](C)NC(=O)CNC(=O)[C@@H](NC=O)C(C)C)[C@H](C)O)C(=O)N[C@H](C(=O)N[C@H](CC(C)C)C(=O)N[C@@H](Cc1c[nH]c2ccccc12)C(=O)N[C@@H](C(=O)N[C@@H](Cc1c[nH]c2ccccc12)C(=O)N[C@H](CC(C)C)C(=O)N[C@@H](Cc1c[nH]c2ccccc12)C(=O)N[C@@H](C(=O)N[C@@H](Cc1c[nH]c2ccccc12)C(=O)NCCO)C(C)C)[C@H](C)O)C(C)C [B21] (For-VGA[dT]A[dL]V[dL]W[dT]W[dL]W[dV]W-NHCH2CH2OH),2.384 and 1.443 and 2.029,3.95 and 1.0017 and 1.216,7.632 and 2.998 and 3.58,6.775 and 3.579 and 3.365,12.3823 and 9.367 and 13.3536,41.7064 and 40.5042 and 40.751,73.419 and 69.4178 and 73.375,75.8465 and 74.348 and 76.0982,78.878 and 79.2127 and 80.049,81.8535 and 78.0432 and 78.4426,82.5653 and 78.9179 and 76.8722,> 3000,,Neither of these peptides exhibited growth inhibition activity
2.49,2.93,1.94,2.5,2.45 ± 0.5,> 1000,CNC(=O)C[C@@H](NC(=O)[C@@H](NC(=O)[C@@H](CC(C)C)NC(=O)[C@H](C)NC(=O)[C@@H](CC(C)C)NC(=O)[C@H](C)NC(=O)CNC(=O)[C@@H](NC=O)C(C)C)C(C)C)C(=O)N[C@@H](Cc1c[nH]c2ccccc12)C(=O)N[C@H](CC(C)C)C(=O)N[C@@H](Cc1c[nH]c2ccccc12)C(=O)N[C@H](CC(C)C)C(=O)N[C@@H](Cc1c[nH]c2ccccc12)C(=O)N[C@@H](C(=O)N[C@@H](Cc1c[nH]c2ccccc12)C(=O)NCCO)[C@H](C)O [B22] (For-VGA[dL]A[dL]V[dD](NHMe)W[dL]W[dL]W[dT]W-NHCH2CH2OH),3.488 and 0.6119 and 2.737,2.255 and -0.3059 and 2.73,4.874 and 2.041 and 3.252,5.2777 and 5.073 and 4.243,9.536 and 13.0972 and 10.1736,28.0205 and 30.7244 and 31.4442,63.0425 and 64.573 and 66.6211,71.1735 and 74.4694 and 76.8331,80.49 and 75.6285 and 73.1074,79.8358 and 79.3757 and 78.5441,88.1657 and 79.255 and 76.0319,> 3000,,Neither of these peptides exhibited growth inhibition activity
